Converted amounts (≈) assume the structure as drawn. Where two headings read alike, the source gives them in different places.
Experiments:
L145 C. albicans = experiment: MIC, broth microdilution (CLSI); assay type: cell-based, Candida albicans; conditions: L145 C. albicans, RPMI, inoculum 10^4 CFU/mL
Protocol: (§1) Antimicrobial activity of the antibiotic FIIRV 104/18 complex is determined by the broth microdilution method according to the procedures published by the Clinical and Laboratory Standards Institute (CLSI), formerly the National Committee for Clinical Laboratory Standards (NCCLS) (document M07-A9). Inocula are: 2-5×10^5 CFU/mL for Gram positive and Gram negative bacteria; 10^4 CFU/mL for Candida albicans.
(§2) The media used are: cation adjusted Mueller Hinton broth (CAMHB) for Staphylococci, Enterococci, Moraxella catarrhalis, Escherichia coli; Todd Hewitt broth (THB) for Streptococci; RPMI 1640 Medium for C. albicans. The effect of 30% bovine serum is determined under the same experimental conditions.
(§3) Cultures are incubated at 35° C. in air. After 18-24 hours visual readings are performed and MICs determined. The MIC (Minimal Inhibitory Concentration) is defined as the lower concentration of antibiotic at which there is no visible growth. The strains used are clinical isolates or strains from American Type Culture Collection (ATCC). Individual factors of antibiotic FIIRV 104/18 are dissolved in DMSO to obtain a 1000 μg/mL stock solution, and subsequently diluted in water to obtain working solution.

[1] = test system: L819 S. aureus Smith ATCC19636; experiment: MIC, broth microdilution (CLSI); assay type: cell-based, Staphylococcus aureus; conditions: Staphylococcus aureus, read-out: MIC
Protocol: (§4) Inocula are: 2-5×10^5 CFU/mL for Gram positive and Gram negative bacteria; 10^4 CFU/mL for Candida albicans.
(§5) The effect of 30% bovine serum is determined under the same experimental conditions.
(§6) Cultures are incubated at 35° C. in air. After 18-24 hours visual readings are performed and MICs determined. The MIC (Minimal Inhibitory Concentration) is defined as the lower concentration of antibiotic at which there is no visible growth. The strains used are clinical isolates or strains from American Type Culture Collection (ATCC).

L2048 B. cenocepacia = experiment: MIC, broth microdilution (CLSI); assay type: cell-based; conditions: Burkholderia cenocepacia; L2048 B. cenocepacia; read-out: MIC
Protocol: as §1, §2, §3

[2] = test system: Gram-positive susceptible, resistant and multi-resistant pathogenic bacteria; experiment: Growth inhibition of Gram-positive bacteria (summary); assay type: cell-based; conditions: Gram positive bacteria: Staphylococci incl. MRSA and MR coagulase-negative, Streptococci, Enterococci incl. VanA
Protocol: as §1, §2, §3

L3294 M. catarrhalis = experiment: MIC, broth microdilution (CLSI); assay type: cell-based; conditions: Moraxella catarrhalis; L3294 M. catarrhalis; CAMHB; read-out: MIC
Protocol: as §4, §5, §6

L49 S. pyogenes C203 = experiment: MIC, broth microdilution (CLSI); assay type: cell-based; conditions: Streptococcus pyogenes; L49 S. pyogenes C203; THB; read-out: MIC
Protocol: as §4, §5, §6

L44 S. pneumoniae = experiment: MIC, broth microdilution (CLSI); assay type: cell-based; conditions: Streptococcus pneumoniae; L44 S. pneumoniae; THB; read-out: MIC
Protocol: as §4, §5, §6

L47 E. coli, SKF 12140 = experiment: MIC, broth microdilution (CLSI); assay type: cell-based; conditions: Escherichia coli; L47 E. coli, SKF 12140; CAMHB; read-out: MIC
Protocol: as §4, §5, §6

L568 E. faecium = experiment: MIC, broth microdilution (CLSI); assay type: cell-based; conditions: Enterococcus faecium; L568 E. faecium; CAMHB; read-out: MIC
Protocol: as §4, §5, §6

L1577 S. epidermidis = experiment: MIC, broth microdilution (CLSI); assay type: cell-based; conditions: Staphylococcus epidermidis; L1577 S. epidermidis; CAMHB; read-out: MIC
Protocol: as §4, §5, §6

L1400 S. aureus MRSA = experiment: MIC, broth microdilution (CLSI); assay type: cell-based; conditions: Staphylococcus aureus; L1400 S. aureus MRSA; CAMHB; read-out: MIC
Protocol: as §4, §5, §6

L3030 A. baumannii = experiment: MIC, broth microdilution (CLSI); assay type: cell-based; conditions: Acinetobacter baumannii; L3030 A. baumannii; read-out: MIC
Protocol: as §4, §5, §6

L100 S. aureus ATCC 6538 = experiment: MIC, broth microdilution (CLSI); assay type: cell-based; conditions: Staphylococcus aureus, ATCC6538; L100 S. aureus ATCC 6538; CAMHB; read-out: MIC
Protocol: as §4, §5, §6

L559 E. faecalis = experiment: MIC, broth microdilution (CLSI); assay type: cell-based; conditions: Enterococcus faecalis; L559 E. faecalis; CAMHB; read-out: MIC
Protocol: as §4, §5, §6

L1730 S. haemolyticus = experiment: MIC, broth microdilution (CLSI); assay type: cell-based; conditions: Staphylococcus haemolyticus; L1730 S. haemolyticus; CAMHB; read-out: MIC
Protocol: as §4, §5, §6

[3] = test system: L1729 S. haemolyticus MDR; experiment: MIC, broth microdilution (CLSI); assay type: cell-based; conditions: Staphylococcus haemolyticus; L1729 S. haemolyticus MDR; CAMHB; read-out: MIC
Protocol: as §4, §5, §6

L560 E. faecalis VanA = experiment: MIC, broth microdilution (CLSI); assay type: cell-based, Enterococcus faecalis; conditions: Enterococcus faecalis, L560 E. faecalis VanA, read-out: MIC
Protocol: as §4, §5, §6

L569 E. faecium VanA = experiment: MIC, broth microdilution (CLSI); assay type: cell-based, Enterococcus faecium; conditions: Enterococcus faecium, L569 E. faecium VanA, read-out: MIC
Protocol: as §4, §5, §6

HeLa cells = experiment: Inhibition of replication of HeLa cells; assay type: cell-based
[4] = Candida albicans, read-out: MIC
[5] = ATCC19636, L819 S. aureus Smith ATCC19636, CAMHB
[6] = ATCC19636, L819 S. aureus Smith, +30% SB (bovine serum)

Row | SMILES | MIC (L145 C. albicans; [4]) [µg/mL] | MIC [1, 5] [µg/mL] | MIC [1, 6] [µg/mL] | MIC (L2048 B. cenocepacia) [µg/mL] | antibacterial activity (in words) [2] | MIC (L3294 M. catarrhalis) [µg/mL] | MIC (L49 S. pyogenes C203) [µg/mL] | MIC (L44 S. pneumoniae) [µg/mL] | MIC (L47 E. coli, SKF 12140) [µg/mL] | MIC (L568 E. faecium) [µg/mL] | MIC (L1577 S. epidermidis) [µg/mL] | MIC (L1400 S. aureus MRSA) [µg/mL] | MIC (L3030 A. baumannii) [µg/mL] | MIC (L100 S. aureus ATCC 6538) [µg/mL] | MIC (L559 E. faecalis) [µg/mL] | MIC (L1730 S. haemolyticus) [µg/mL] | MIC [3] [µg/mL] | MIC (L560 E. faecalis VanA; +30% SB (bovine serum)) [µg/mL] | MIC (L560 E. faecalis VanA; CAMHB) [µg/mL] | MIC (L569 E. faecium VanA; +30% SB (bovine serum)) [µg/mL] | other results
1 | COC(=O)c1c(C)cc2c(c1O)[C@]1(O)C(=O)c3cc4c(c(O)c3C(=O)[C@]1(OC)[C@H](O)C2)C(=O)C=C(NC1O[C@@H](C)[C@H](OC2CC[C@H](O)C(C)O2)[C@@H](O)[C@H]1OC)C4=O (stereo partly drawn) [F797, (6R,6aS,14aR)-methyl 11-[(2S,3R,4R,5R,6S)-4-hydroxy-5-{[(2R,5S,6S)-5-hydroxy-6-methyltetrahydro-2H-pyran-2-yl]oxy}-3-methoxy-6-methyltetrahydro-2H-pyran-2-ylamino]-1,6,8,14a-tetrahydroxy-6a-methoxy-3-methyl-7,9,12,14-tetraoxo-5,6,6a,7,9,12,14,14a-octahydrobenzo[α]tetracene-2-carboxylate] | > 128 | 0.002 (≈ 0.00251 µM) | 0.125 (≈ 0.157 µM) | 16 (≈ 20.1 µM) | very high antibacterial activity | 0.06 (≈ 0.0752 µM) | 0.002 (≈ 0.00251 µM) | 0.004 (≈ 0.00501 µM) | 64 (≈ 80.2 µM) | 0.5 (≈ 0.627 µM) | 0.015 (≈ 0.0188 µM) | 0.015 (≈ 0.0188 µM) | 16 (≈ 20.1 µM) | 0.008 (≈ 0.01 µM) | 0.25 (≈ 0.313 µM) | 0.015 (≈ 0.0188 µM) | 0.015 (≈ 0.0188 µM) | 0.5 (≈ 0.627 µM) | 0.125 (≈ 0.157 µM) | 2 (≈ 2.51 µM) | MIC (L569 E. faecium VanA; CAMHB): 0.5 µg/mL (≈ 0.627 µM); cytotoxicity (in words) (HeLa cells; HeLa cells): moderate cytotoxicity; IC50 (HeLa cells; Homo sapiens, HeLa): 5 µg/mL (≈ 6.27 µM)
2 | COC(=O)c1c(C)cc2c(c1O)[C@]1(O)C(=O)c3cc4c(c(O)c3C(=O)[C@]1(OC)[C@H](O)C2)C(=O)C=C(NC1O[C@@H](C)[C@H](O)[C@@H](O)[C@H]1OC)C4=O (stereo partly drawn) [F683, 6R,6aS,14aR-methyl-11,6,8,14a-tetrahydroxy-11[(2S,3R,4R,5R,6S)-4,5-dihydroxy-3-methoxy-6-methyltetrahydro-2H-pyran-2-ylamino]-6a-methoxy-3-methyl-7,9,12,14-tetraoxo-5,6,6a,7,9,12,14,14a-octahydrobenzo[α]tetracene-2-carboxylate] | > 128 | 0.5 (≈ 0.731 µM) | 8 (≈ 11.7 µM) | > 128 | very high antibacterial activity | 0.5 (≈ 0.731 µM) | 0.125 (≈ 0.183 µM) | 0.125 (≈ 0.183 µM) | > 128 | 16 (≈ 23.4 µM) | 0.5 (≈ 0.731 µM) | 0.5 (≈ 0.731 µM) | > 128 | 2 (≈ 2.93 µM) | 8 (≈ 11.7 µM) | 0.5 (≈ 0.731 µM) | 0.5 (≈ 0.731 µM) | 32 (≈ 46.8 µM) | 8 (≈ 11.7 µM) | > 32 | MIC (L569 E. faecium VanA; CAMHB): 16 µg/mL (≈ 23.4 µM)
3 | C[C@@H]1[C@H](O)[C@@H](C)/C=C/C=C/C=C/C=C/C=C/C=C/C=C/[C@H](O[C@@H]2O[C@H](C)[C@@H](O)[C@H](N)[C@@H]2O)C[C@@H]2O[C@](O)(C[C@@H](O)C[C@@H](O)[C@H](O)CC[C@@H](O)C[C@@H](O)CC(=O)O[C@H]1C)C[C@H](O)[C@H]2C(=O)O [AmB, Amphotericin B, reference compound] |  |  |  |  |  |  |  |  |  |  |  |  |  |  |  |  |  |  |  |  | MIC (L145 C. albicans): 1 µg/mL (≈ 1.08 µM)

Reference: patent US20190002942A1, “ANTIBIOTIC FIIRV 104/18 COMPLEX AND THE ISOLATED INDIVIDUAL FACTORS THEREOF” (Fondazione Istituto Insubrico di Ricerca per la Vita, priority 2015, published 2019)
